# Results taken from patent US6949544B2, “Inhibitors of c-Jun N-terminal kinases (JNK) and other protein kinases” (Vertex Pharmaceuticals Incorporated, priority 2001, dated 2005).
# Tests used:
# [1] = target: T1, Lck kinase purified from bovine thymus (Bos taurus, UniProt Q3ZCM0); assay: Lck inhibition assay (33P incorporation into poly Glu-Tyr); type: biochemical; settings: 10 μM ATP; read-out: Activity in the Lck Inhibition Assay (Ki rating A-C)
# T1 construct: Lck kinase purified from bovine thymus; purchased Upstate Biotechnology 14-106; host or cells: bovine thymus (tissue-purified)
# Summary of the method: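 Filter-binding radiometric assay of 33P transfer from ATP to poly Glu-Tyr (4:1, 5 mg/ml) by bovine thymus Lck in 0.05 M HEPES pH 7.6, 10 mM MgCl2, 2 mM DTT, 0.25 mg/ml BSA, 10 μM ATP. After 10 min at 30° C, reaction started with 33P-ATP, run 20 min, quenched with TCA; filter-bound radioactivity counted by scintillation.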
# CDK-2/Cyclin A = CDK-2/Cyclin A (Homo sapiens, UniProt P24941); assay: CDK2 inhibition assay (standard coupled enzyme assay); type: biochemical; settings: 25 nM CDK-2/Cyclin A; read-out: CDK2 Inhibitory Activity (Ki rating A-C)
# Summary of the method: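 CDK-2/Cyclin A (25 nM final) started the reaction after 10-min, 30° C preincubation of compound (30 μM final) with peptide (100 μM), ATP and coupling enzymes in HEPES pH 7.5.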
# T1 sequence (Q3ZCM0 1-509): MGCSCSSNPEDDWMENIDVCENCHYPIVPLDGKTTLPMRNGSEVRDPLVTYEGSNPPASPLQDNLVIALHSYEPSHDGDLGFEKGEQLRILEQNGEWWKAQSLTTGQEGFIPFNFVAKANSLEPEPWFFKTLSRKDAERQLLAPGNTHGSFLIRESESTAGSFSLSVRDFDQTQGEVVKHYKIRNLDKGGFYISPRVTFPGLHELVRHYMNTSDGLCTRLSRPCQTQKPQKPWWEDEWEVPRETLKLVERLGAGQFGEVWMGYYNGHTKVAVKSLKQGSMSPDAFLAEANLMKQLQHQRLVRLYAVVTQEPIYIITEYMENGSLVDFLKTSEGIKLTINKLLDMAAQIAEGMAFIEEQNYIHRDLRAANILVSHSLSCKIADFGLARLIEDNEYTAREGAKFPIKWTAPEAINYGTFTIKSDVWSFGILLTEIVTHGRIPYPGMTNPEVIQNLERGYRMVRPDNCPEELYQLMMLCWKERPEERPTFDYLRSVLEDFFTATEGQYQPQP
Ki [1] [nM],Ki (CDK-2/Cyclin A) [nM],SMILES
100 to 1000,> 5000,COc1cc(-c2ccnc(Nc3cccc(N)c3)n2)cc(OC)c1OC [Compound I-57]
> 1000,> 5000,COc1cc(-c2ccnc(Nc3ccc(N)cc3)n2)cc(OC)c1OC [Compound I-34]
